± gives the expanded uncertainty stated by the source.
Conditions: for Normal melting temperature: DTA

CCn1cc[n+](C)c1.O=S(=O)([N-]S(=O)(=O)C(F)(F)C(F)(F)F)C(F)(F)C(F)(F)F
Normal melting temperature (Crystal): 16.00 ± 2 °C
Glass transition temperature (Glass, DSC): -52.00 ± 2 °C

CCn1cc[n+](C)c1.O=S(=O)([O-])C(F)(F)F [1-ethyl-3-methylimidazolium trifluoromethanesulfonate]
Normal melting temperature (Crystal): -14.00 ± 2 °C

CC[n+]1ccccc1.O=S(=O)([N-]S(=O)(=O)C(F)(F)F)C(F)(F)F [1-ethylpyridinium bis[(trifluoromethyl)sulfonyl]imide]
Normal melting temperature (Crystal 1): 32.00 ± 2 °C
Triple point temperature (Crystal 2, DSC): 294.15 ± 2 K

CC[n+]1ccccc1.CS(=O)(=O)[O-] [1-ethylpyridinium methanesulfonate]
Normal melting temperature (Crystal): 62.00 ± 2 °C

CC[n+]1ccccc1.O=S(=O)([O-])C(F)(F)F [1-ethylpyridinium triflate]
Normal melting temperature (Crystal 1): 32.00 ± 2 °C
Triple point temperature (Crystal 2, DSC): 266.15 ± 2 K

C[N+](C)(C)CCO.O=S(=O)([N-]S(=O)(=O)C(F)(F)F)C(F)(F)F [choline bis(trifluoromethylsulfonyl)imide]
Normal melting temperature (Crystal 1): 33.00 ± 2 °C
Triple point temperature (Crystal 2, DSC): 275.15 ± 2 K
Triple point temperature (Metastable crystal, DSC): 300.15 ± 2 K

Reference: the NIST ThermoML archive (doi:10.1016/j.jct.2015.07.034)
